Data reported in US20120142722A1, “CONJUGATES OF CYTOTOXIC DRUGS” (priority 2009, published 2012).
“And” between values parts separate entries of the source, which are not always exact repeats. Equal entries are not always repeated. “Also recorded” adds a separate entry of the source. Where two headings read alike, the source gives them in different places.

How the values were obtained:
[1] = mouse, in vivo
A375 melanoma tumors = test: Tumor growth inhibition in subcutaneous A375 melanoma xenograft; type: in vivo, athymic nude mice
[2] = White blood cell count in A375 tumor bearing mice; type: in vivo; conditions: ATT-1 3 doses of 30 mg/kg, CCNU 6 doses of 15 mg/kg; tested 1 and 4 days post last dose
Procedure: Repeated doses of ATT-1 (3 doses of 30 mg/kg) and CCNU (6 doses of 15 mg/kg) were administered to A375 tumor bearing mice and WBC was tested (at AML, Herzelia, Israel) 1 and 4 days post last dose.

A375-melanoma cells = test: In vitro cytotoxicity, XTT tetrazolium dye reduction cell viability assay; type: cell-based; conditions: Homo sapiens
[3] = Maximal tolerated dose in healthy nude mice; conditions: female, athymic (nu/nu), mouse, in vivo, iv; i.v. on 5 consecutive days; determined 24 hr after the last dose; no lethality and body weight loss <20%
Procedure: Increasing doses of ATT-11E were tested on nude mice for their effect on body weight. Healthy female athymic (nu/nu) mice (6-8 weeks) (Harlan Inc., Jerusalem, Israel) were used for determination of maximum tolerable dose (MTD). MTD was defined as the maximum dose that caused no drug-related lethality and that produced animal body weight loss of <20% of original weight. ATT-11E was dissolved in phosphate buffer (pH 7.4) containing 10% DMSO and 30% cremophor and administered by i.v. injection. ATT-11E was administered on 5 consecutive days. Body weight of mice was monitored daily and MTD was determined 24 hr post last dose.

[4] = A-375, 48 h, read-out: IC50 (inhibitory concentration of 50% of cells)
[5] = female, beagle, dog, in vivo, iv, 6 mg/kg

For CCCCCC(CCC1CCC(NC(=O)N(CCCl)N=O)CC1)(C(=O)O)C(=O)O (stereo not shown) [ATT-1], the Weight loss [1] was 14%, the T/C (A375 melanoma tumors; mouse, in vivo) was 0.24 and the “T/C, ratio of tumor volume of treated compared to control” value (A375 melanoma tumors; mouse, in vivo) was 0.33. The “T/C, tumor volume treated compared to control” value (A375 melanoma tumors; mouse, in vivo) was 0.52, the Tumor growth inhibition (A375 melanoma tumors; mouse, in vivo) was 48% and 76% and the “Tumor growth inhibition compared with control” value (A375 melanoma tumors; mouse, in vivo) was 77% and 73%. For the same compound, the “Reduction of WBC compared to the control” value [2] was 27% and the IC50 (A375-melanoma cells; [4]) was 545 µM.
In the case of CCOC(=O)C(C)(CCC1CCC(NC(=O)N(CCCl)N=O)CC1)C(=O)OCC (stereo not shown) [ATT-5E], the IC50 (A375-melanoma cells; [4]) is reported as 130 µM.
For CCOC(=O)C(C)(CCC1CCN(C(=O)Oc2ccc3nc4c(c(CC)c3c2)Cn2c-4cc3c(c2=O)COC(=O)C3(O)CC)CC1)C(=O)OCC (stereo not shown) [ATT-11E], the “% inhibition” value (A375 melanoma tumors; mouse, in vivo, 1 mg/kg) was 54%, the T/C (A375 melanoma tumors; mouse, in vivo, 1 mg/kg) was 0.46 and 0.62 and the “% inhibition” value (A375 melanoma tumors; mouse, in vivo, 2.5 mg/kg) was 65%. The T/C (A375 melanoma tumors; mouse, in vivo, 2.5 mg/kg) was 0.35, the T/C (A375 melanoma tumors; mouse, in vivo, 3 mg/kg) was 0.41 and the “% inhibition” value (A375 melanoma tumors; mouse, in vivo, 5 mg/kg) was 72%. The T/C (A375 melanoma tumors; mouse, in vivo, 5 mg/kg) was 0.28, the T/C (A375 melanoma tumors; mouse, in vivo, 9 mg/kg) was 0.39 and the “% inhibition” value (A375 melanoma tumors; mouse, in vivo, 20 mg/kg) was 88%. For the same compound, the “Tumor volume growth inhibition (TVI)” value (A375 melanoma tumors; mouse, in vivo, 20 mg/kg) was 97%, the “% inhibition” value (A375 melanoma tumors; mouse, in vivo, 30 mg/kg) was 93% and the T/C (A375 melanoma tumors; mouse, in vivo, 30 mg/kg) was 0.07. For the same compound, the T/C (A375 melanoma tumors; mouse, in vivo, 40 mg/kg) was 0.1, the “Tumor volume growth inhibition (TVI)” value (A375 melanoma tumors; mouse, in vivo, 40 mg/kg) was 90% and the IC50 (A375-melanoma cells; A-375, 24 h) was 0.6 µM. It also gave an IC50 (A375-melanoma cells; [4]) of 0.6 µM and an MTD at 5 days [3] of over 40 mg/kg.
With CCc1c2c(nc3ccc(OC(=O)N4CCC(CCC(C)(C(=O)OC(C)(C)C)C(=O)OC(C)(C)C)CC4)cc13)-c1cc3c(c(=O)n1C2)COC(=O)C3(O)CC (stereo not shown) [ATT-11TBE] the “Plasma level of derived SN-38 at 24 hours after administration (in words)” value (dog, in vivo) was “still detectable”, the “AUC of metabolite SN-38, fold larger than SN-38 derived from CPT-11” value [5] was 3.6 fold and the “Plasma half-life (t1/2) of metabolite SN-38, fold longer than SN-38 derived from CPT-11” value [5] was 3.1 fold. The “Tumor growth delay after the last dose (in words)” value (A375 melanoma tumors; mouse, in vivo) was “complete tumor regression; also recorded: substantially inhibited tumor growth, even 22 days after the last dose”, the “Tumor volume growth inhibition (TVI)” value (A375 melanoma tumors; mouse, in vivo, 5 mg/kg) was 97% and the “Tumor volume growth inhibition (TVI)” value (A375 melanoma tumors; mouse, in vivo, 20 mg/kg) was 100%. It also gave an IC50 (A375-melanoma cells; A-375, 24 h) of 0.8 µM.
In the case of O=NN(CCCl)C(=O)NC1CCCCC1 [CCNU, Chloroethylcyclo-hexylnitrosourea, reference compound], the Weight loss [1] is reported as 19%, the “T/C, tumor volume treated compared to control” value (A375 melanoma tumors; equal total dose: ATT-1 3 doses of 30 mg/kg, CCNU 6 doses of 15 mg/kg, day 23) is reported as 0.47 and the Tumor growth inhibition (A375 melanoma tumors; equi-molar doses: ATT-1 3×30 mg/kg, CCNU 3×15 mg/kg) is reported as 48%. For the same compound, the T/C (A375 melanoma tumors; equi-molar doses: ATT-1 3×30 mg/kg, CCNU 3×15 mg/kg, day 30) was 0.56, the “Reduction of WBC compared to the control” value [2] was 89% and the IC50 (A375-melanoma cells; A-375, 48 h, A375 cells, 48 hours of incubation, XTT, read-out: IC50 (inhibitory concentration of 50% of cells)) was 200 µM.
In the case of CCc1c2c(nc3ccc(OC(=O)N4CCC(N5CCCCC5)CC4)cc13)-c1cc3c(c(=O)n1C2)COC(=O)[C@]3(O)CC [CPT-11, Irinotecan, reference compound], the “Plasma level of derived SN-38 at 24 hours after administration (in words)” value (6 mg/kg intravenous, beagle dogs, 24 hours) is reported as “below detection level”, the “Tumor growth delay after the last dose (in words)” value (A375 melanoma tumors; i.v., ATT-11TBE 20 mg/kg 3 times a week (9 doses), CPT-11 75 mg/kg once a week for three weeks, 22 days after the last dose) is reported as “never reached the complete tumor regression” and the IC50 (A375-melanoma cells; A-375, 24 h, A375 cells, Example 10, incubated for 24 hr, XTT, read-out: IC50) is reported as 44 µM. For the same compound, the IC50 (A375-melanoma cells; A-375, 24 h, A375 cells, Example 15 / FIG. 14, 24 hours of incubation, read-out: IC50) was 9 µM.
